Data on 37 molecules can be found in ChEMBL document CHEMBL2150982, “Synthesis and SAR of 1-hydroxy-1H-benzo[d]imidazol-2(3H)-ones as Inhibitors of D-Amino Acid Oxidase” (ACS Med Chem Lett, 2012).

Series [1] addresses D-amino-acid oxidase (Homo sapiens, UniProt P14920). Nature of the series: Inhibition of human recombinant DAAO expressed in HEK293 cells using D-serine as substrate after 20 mins by horseradish peroxidase-coupled assay.
In series [2] the target is D-amino-acid oxidase (Sus scrofa, UniProt P00371). As to the kind of experiment: Inhibition of pig DAAO using D-serine as substrate after 20 mins by horseradish peroxidase-coupled assay.
Chain of D-amino-acid oxidase (Sus scrofa, UniProt P00371) (P00371 whole entry): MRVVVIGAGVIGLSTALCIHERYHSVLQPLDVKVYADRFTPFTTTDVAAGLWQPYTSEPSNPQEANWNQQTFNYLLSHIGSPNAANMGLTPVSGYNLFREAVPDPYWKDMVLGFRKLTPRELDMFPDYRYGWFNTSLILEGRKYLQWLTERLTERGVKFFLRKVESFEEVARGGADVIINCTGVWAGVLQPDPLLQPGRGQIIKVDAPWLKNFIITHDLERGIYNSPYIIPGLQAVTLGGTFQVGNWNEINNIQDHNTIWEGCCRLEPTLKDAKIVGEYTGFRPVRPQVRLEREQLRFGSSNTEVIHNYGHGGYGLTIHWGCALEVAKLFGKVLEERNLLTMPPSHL
Series [3] deals with Liver. Nature of the series: (§1) Metabolic stability in mouse liver microsomes assessed as compound remaining at 5 uM after 1 hr by LC/MS/MS analysis in presence of NADPH. In kind it is ADME, Microsome. Conditions: microsomes, 1 h, 5 µM; call rule not given here. Background: Liver microsomes are vesicles of endoplasmic reticulum, rich in cytochrome P450 enzymes.
For series [4], the system named is Liver. As to the kind of experiment: Metabolic stability in mouse liver microsomes assessed as compound remaining at 5 uM after 1 hr by LC/MS/MS analysis in presence of UDPGA. In kind it is ADME, Microsome.
In the next series the test system is Plasma. As to the kind of experiment: (§2) Metabolic stability in mouse plasma assessed as compound remaining at 5 uM after 1 hr by LC/MS/MS analysis. In kind it is ADME, cell-free. The conditions noted are these: 1 h, 5 µM.
Series [5] can be described thus: Metabolic stability in mouse liver microsomes assessed as compound remaining at 5 uM after 1 hr by LC/MS/MS analysis. The conditions noted are these: read-out: Stability. Format: ADME, Microsome.
The subject of series [6] is Mus musculus. Nature of the series: Pharmaco-enhancing activity in CD1 mouse assessed as increase in D-serine level in plasma at 30 mg/kg, po relative to control. In kind it is ADME, organism-based. The arrangement: dose 30 mg/kg, route oral. The conditions noted are these: in vivo.
In series [7] the test system is Mus musculus. Nature of the series: Pharmaco-enhancing activity in CD1 mouse assessed as increase in D-serine level in plasma at 30 mg/kg, po measured at 30 mins relative to control. Format: ADME, organism-based. Set-up: dose 30 mg/kg, route oral. The conditions noted are these: in vivo, 0.5 h.
Series [8] is described as follows: as §1. In kind it is ADME, Microsome. Conditions: liver microsomes, read-out: Stability.
For series [9], the system named is Mus musculus. As to the kind of experiment: Pharmaco-enhancing activity in CD1 mouse assessed as increase in D-serine level in plasma at 30 mg/kg, po measured up to 2 hrs relative to control. Conditions: in vivo. Format: ADME, organism-based. The arrangement: dose 30 mg/kg, route oral.
Series [10] can be described thus: as §2. In kind it is ADME, cell-free. Conditions: read-out: Stability.

A value given as a limit tells only on which side of the number the result lay.

Chain of D-amino-acid oxidase (Homo sapiens, UniProt P14920) (P14920 whole entry): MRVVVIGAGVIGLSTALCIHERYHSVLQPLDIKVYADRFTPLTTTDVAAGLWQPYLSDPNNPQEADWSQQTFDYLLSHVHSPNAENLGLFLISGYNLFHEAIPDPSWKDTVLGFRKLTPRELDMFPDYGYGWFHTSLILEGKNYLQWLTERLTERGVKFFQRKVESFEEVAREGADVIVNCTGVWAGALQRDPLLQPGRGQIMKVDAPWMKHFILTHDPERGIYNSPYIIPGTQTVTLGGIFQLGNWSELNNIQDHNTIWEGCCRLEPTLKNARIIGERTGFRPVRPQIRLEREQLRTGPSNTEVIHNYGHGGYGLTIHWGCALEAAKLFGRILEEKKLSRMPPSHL

In the case of `O=c1[nH]c2cccnc2n1O`, at D-amino-acid oxidase [1], the IC50 was 30 µM.
Still for that read-out and setting: the figure for `Oc1nc2ccccc2[nH]1` is > 100 µM; for `Nn1c(=O)[nH]c2ccccc21` it is > 100 µM; for `COn1c(=O)[nH]c2ccccc21` it is > 100 µM.
On the same count and under the same terms, for `Cn1c(=O)n(O)c2ccccc21` the value was > 100 µM; for `O=C1Nc2ccccc2C1O` (stereo unspecified), > 100 µM.
As to `O=c1[nH]c2ncccc2n1O`, on D-amino-acid oxidase [1], the IC50 worked out at 1 µM.
Still for that read-out and setting: for `O=c1[nH]c2ccncc2n1O` the value was 70 µM.
For the molecule `O=c1[nH]c2ccccc2n1O`, the IC50 against D-amino-acid oxidase [2] came to 1 µM; at D-amino-acid oxidase [1] it was 0.6 µM.
For `O=c1[nH]c2c(F)cccc2n1O`, in that order: 0.5 µM and 0.1 µM.
The matching figures for `Cc1cccc2c1[nH]c(=O)n2O`: 0.4 µM and 0.2 µM.
For `CCc1cccc2c1[nH]c(=O)n2O`, the half-inhibitory concentration (IC50) is 20 µM against D-amino-acid oxidase [2] and 80 µM at D-amino-acid oxidase [1].
For `COc1cccc2c1[nH]c(=O)n2O`, the Stability in the series with Liver [3] is recorded as 60%; in the series on Liver [4], “Unstable”; with Plasma it was 90%. Besides, the results for the IC50 against D-amino-acid oxidase [2] and on D-amino-acid oxidase [1] were 0.4 µM and 0.1 µM, respectively. Moreover, the remaining at 1 h, 5 µM in series [5] amounted to 100%. Moreover, the Activity result in the series on Mus musculus [6] is “Not Active”.
On to `O=c1[nH]c2c(Cc3ccccc3)cccc2n1O`, for which the IC50 against D-amino-acid oxidase [2] amounted to 50 µM; on D-amino-acid oxidase [1] it was 10 µM.
On to `CCOc1cccc2c1[nH]c(=O)n2O`, for which the IC50 on D-amino-acid oxidase [2] and at D-amino-acid oxidase [1] was 50 µM each time.
With `CC(C)c1cccc2c1[nH]c(=O)n2O`, the IC50 against D-amino-acid oxidase [2] was found to be 10 µM; on D-amino-acid oxidase [1], 20 µM.
The matching figures for `CCCc1cccc2c1[nH]c(=O)n2O`: 30 µM and 20 µM.
The matching figures for `CCC(C)c1cccc2c1[nH]c(=O)n2O` (stereo unspecified): 40 µM and > 100 µM.
`Cc1ccc2c([nH]c(=O)n2O)c1C`: the IC50 at D-amino-acid oxidase [2] was 1 µM; at D-amino-acid oxidase [1], 20 µM.
The matching figures for `Cc1c(F)ccc2c1[nH]c(=O)n2O`: 0.7 µM and 0.07 µM.
For `O=c1[nH]c2c3c(ccc2n1O)CCO3`, in that order: 0.2 µM and 0.8 µM.
For `Cc1cc(C)c2[nH]c(=O)n(O)c2c1`, in that order: 4 µM and 20 µM.
As to `O=c1[nH]c2c(F)cc(F)cc2n1O`, the result in the series with Mus musculus [7] and with Mus musculus [9] was Active. The remaining at 1 h, 5 µM in series [8], in series [10] and in series [5] was 100% in each case. Moreover, the results for the IC50 against D-amino-acid oxidase [2] and on D-amino-acid oxidase [1] were 0.4 µM and 0.08 µM, respectively. For the same molecule, the Stability in the series on Liver [4] worked out at 0.6%.
For `O=c1[nH]c2cc(F)ccc2n1O`, the half-inhibitory concentration (IC50) stood at 1 µM on D-amino-acid oxidase [2] and 0.9 µM on D-amino-acid oxidase [1].
The matching figures for `Cc1ccc2c(c1)[nH]c(=O)n2O`: 4 µM and 4 µM.
The matching figures for `O=c1[nH]c2cc(F)c(F)cc2n1O`: 30 µM and 70 µM.
The matching figures for `Cc1cc2[nH]c(=O)n(O)c2cc1F`: 1 µM and 2 µM.
As for `O=c1[nH]c2cc3c(cc2n1O)CCC3`, the results for the IC50 against D-amino-acid oxidase [2] and at D-amino-acid oxidase [1] were 10 µM and 30 µM, respectively.
The matching figures for `O=c1[nH]c2ccc(F)cc2n1O`: 0.6 µM and 0.4 µM.
For `O=c1[nH]c2ccc(Cl)cc2n1O`, in that order: 2 µM and 9 µM.
For `Cc1ccc2[nH]c(=O)n(O)c2c1`, in that order: 7 µM and 30 µM.
For `O=c1[nH]c2ccc(F)c(F)c2n1O`, the IC50 on D-amino-acid oxidase [2] is 20 µM; on D-amino-acid oxidase [1], 8 µM.
For `O=c1[nH]c2ccc3c(c2n1O)CCC3`, in that order: > 100 µM and > 100 µM.
The matching figures for `Cc1c(F)ccc2[nH]c(=O)n(O)c12`: > 100 µM and > 100 µM.
On to `O=c1[nH]c2cccc(F)c2n1O`, for which the IC50 against D-amino-acid oxidase [2] was 20 µM; on D-amino-acid oxidase [1], 3 µM.
The matching figures for `Cc1cccc2[nH]c(=O)n(O)c12`: > 100 µM and 40 µM.
For the molecule `O=C1Cc2ccccc2N1O`, the IC50 on D-amino-acid oxidase [1] was > 100 µM.

The IC50 is the midpoint of a concentration-inhibition curve.
